From patent US10494356B2, “Compound promoting osteoblast differentiation and inhibiting adipocyte differentiation, preparation method thereof and application thereof” (SUNG KYUN BIOTECH CO., LTD., priority 2016, dated 2019)

Assays:
Format in all cases: cell-based, mouse
C3H10T1/2 cells [1] = experiment: Fat production during differentiation of C3H10T1/2 cells into adipocytes (Oil Red O staining); conditions: for effect of inhibiting adipocyte differentiation: Test Example 3: NK11 at 1 μM, other compounds at 5 μM, vs negative control group (DMSO)
Method: After plating the cells on a 6-well plate in the same manner as in Test Example 1, they were cultured for 9 days in a medium containing 1 μM dexamethasone, 5 μg/mL insulin and 1 μM troglitazone for adipocyte differentiation after adding the NK11 compound at 0.1, 0.5, 1 and 5 μM. After completion of differentiation, the medium was removed and the cells were fixed with 10% neutral buffered formalin and stained with 0.5% Oil Red O solution.
Then, the Lab color space was measured using the image files of the Oil Red O-stained well plate.

[2] = system: ALP mRNA in C3H10T1/2 cells; experiment: mRNA expression of osteoblast differentiation factor ALP (real-time PCR); conditions: for expression level of ALP, osteogenesis marker (mRNA): Test Example 3: NK11 at 1 μM, other compounds at 5 μM
From the text: (§1) The mRNA expression levels of the osteoblast differentiation factor and the adipocyte differentiation factor in the cells treated with the NK11 compound were investigated.
(§2) First, the expression level of the osteoblast differentiation factor ALP was investigated while differentiating the C3H10T1/2 cells into osteoblasts in the same manner as in […]. Also, the expression levels of the adipocyte differentiation factors PPARγ, aP2 and CD36 compound were investigated while differentiating the C3H10T1/2 cells into adipocytes in the same manner as in Test Example 1.
(§3) Total RNA was extracted using TRIzol (Invitrogen). 1 μg of the isolated RNA was synthesized into cDNA by adding random primers, dNTP and PrimeScript™ reverse transcriptase (Takara). The synthesized cDNA was subjected to real-time PCR using primers and SYBR Premix Ex Taq (Takara).

C3H10T1/2 cells [3] = experiment: ALP (alkaline phosphatase) production during differentiation of C3H10T1/2 cells into osteoblasts (ALP staining, -b value)
Method: The C3H10T1/2 cells derived from mouse embryo fibroblasts are pluripotent stem cells that can differentiate into various cell lineages including osteoblasts. Because one of the characteristics of osteoblasts is the ALP (alkaline phosphatase) activity, the differentiation of the C3H10T1/2 cells into osteoblasts was measured based on the ALP activity.
The C3H10T1/2 cells were cultured with a DMEM medium supplemented with 10% FBS and 1% penicillin/streptomycin under the condition of 37° C. and 5% CO2. The C3H10T1/2 cells were cultured on a 6-well plate at a concentration of 2.5×10^4/mL with a medium containing 10 mM β-glycerophosphate and 50 μg/mL ascorbic acid for osteocyte differentiation. The differentiation was performed for 9 days after adding the NK11 compound at 0.1, 0.5, 1 and 5 μM, while replacing the medium with 3-day intervals. Then, ALP staining was performed using 5-bromo-4-chloro-3-indolyl phosphate/nitro blue tetrazolium (BCIP/NBT).
Then, the Lab color space was measured using the image files of the ALP-stained well plate.

[4] = system: PPARγ, aP2 and CD36 mRNAs in C3H10T1/2 cells; experiment: mRNA expression of adipocyte differentiation factors PPARγ, aP2 and CD36 (real-time PCR)
From the text: as §1, §2, §3

[5] = Test Example 3: NK11 at 1 μM, other compounds at 5 μM, vs negative control group (DMSO)
[6] = Test Example 3: NK11 at 1 μM, other compounds at 5 μM
[7] = 0.1, 0.5, 1 and 5 μM, 9 days differentiation, compared to DMSO-treated negative control

Compound: COc1cc([C@@H]2O[C@@H](c3cc(OC)c(O)c(OC)c3)[C@H](COC(C)=O)[C@H]2COC(C)=O)cc(OC)c1O [Chemical Formula 11]
- effect of inhibiting adipocyte differentiation (C3H10T1/2 cells [1]): no difference in the effect of inhibiting adipocyte differentiation from the negative control group (DMSO)
- expression level of ALP, osteogenesis marker (mRNA) [2]: no effect
- ALP production (C3H10T1/2 cells [3]; [5]): no difference in ALP production from the negative control group (DMSO)
- expression levels of the adipocyte-related genes CD36, aP2 and PPARγ [4, 6]: no effect

Compound: COc1cc([C@@H]2O[C@@H](c3cc(OC)c(O)c(OC)c3)[C@H](CO)[C@H]2CO)cc(OC)c1O [Chemical Formula 10]
- effect of inhibiting adipocyte differentiation (C3H10T1/2 cells [1]): no difference in the effect of inhibiting adipocyte differentiation from the negative control group (DMSO)
- expression level of ALP, osteogenesis marker (mRNA) [2]: no effect
- ALP production (C3H10T1/2 cells [3]; [5]): no difference in ALP production from the negative control group (DMSO)
- expression levels of the adipocyte-related genes CD36, aP2 and PPARγ [4, 6]: no effect

Compound: COCOc1c(OC)cc([C@@H]2O[C@@H](c3cc(OC)c(OCOC)c(OC)c3)[C@H](CO)[C@H]2CO)cc1OC [Chemical Formula 4]
- effect of inhibiting adipocyte differentiation (C3H10T1/2 cells [1]): no difference in the effect of inhibiting adipocyte differentiation from the negative control group (DMSO)
- expression level of ALP, osteogenesis marker (mRNA) [2]: no effect
- ALP production (C3H10T1/2 cells [3]; [5]): no difference in ALP production from the negative control group (DMSO)
- expression levels of the adipocyte-related genes CD36, aP2 and PPARγ [4, 6]: no effect

Compound: COc1cc([C@@H]2O[C@@H](c3cc(OC)c(O)c(OC)c3)[C@H](COC(=O)/C=C/c3ccc(O)cc3)[C@H]2COC(=O)/C=C\c2ccc(O)cc2)cc(OC)c1O [Chemical Formula 8]
- fat production by adipocytes (Oil Red O) (C3H10T1/2 cells [1]; [7]): inhibited fat production by adipocytes in a concentration-dependent manner
- expression of ALP, osteogenesis marker (mRNA) ([2]; at the concentration of 5 μM): expressed highly
- ALP production (C3H10T1/2 cells [3]; [7]): increased ALP production in a concentration-dependent manner
- expression levels of the adipocyte-related genes CD36, aP2 and PPARγ ([4]; 0.1, 0.5, 1 and 5 μM, mRNA, real-time PCR): decreased the expression levels of the adipocyte-related genes CD36, aP2 and PPARγ in a concentration-dependent manner

Compound: COc1cc([C@@H]2O[C@@H](c3cc(OC)c(O)c(OC)c3)[C@H](COC(=O)/C=C/c3ccccc3)[C@H]2COC(=O)/C=C/c2ccccc2)cc(OC)c1O [Chemical Formula 9]
- effect of inhibiting adipocyte differentiation (C3H10T1/2 cells [1]): showed the effect of inhibiting adipocyte differentiation as the NK11 compound
- expression level of ALP, osteogenesis marker (mRNA) [2]: high
- ALP production (C3H10T1/2 cells [3]; [5]): significant effect of promoting ALP production although slightly lower than that of NK11
- ALP production as compared to the NK11 compound (C3H10T1/2 cells [3]; Test Example 3: compound at 5 μM vs NK11 at 1 μM): about 2 times
- expression levels of the adipocyte-related genes CD36, aP2 and PPARγ [4, 6]: decreased

Compound: COC(=O)[C@@H]1[C@@H](C(=O)OC)[C@H](c2cc(OC)c(O)c(OC)c2)O[C@H]1c1cc(OC)c(O)c(OC)c1 [Chemical Formula 2]
- effect of inhibiting adipocyte differentiation (C3H10T1/2 cells [1]): no difference in the effect of inhibiting adipocyte differentiation from the negative control group (DMSO)
- expression level of ALP, osteogenesis marker (mRNA) [2]: no effect
- ALP production (C3H10T1/2 cells [3]; [5]): no difference in ALP production from the negative control group (DMSO)
- expression levels of the adipocyte-related genes CD36, aP2 and PPARγ [4, 6]: no effect
